Data published in PubChem BioAssay (NCI).
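GI50: concentration for 50% inhibition of growth. The concentration for full growth arrest is given as TGI.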

Tests used:
Experiment in all cases: NCI tumour cell line growth inhibition, 384-well format
[1] = test system: SK-OV-3 ovarian
[2] = test system: NCI-H322M lung
[3] = test system: PC-3 prostate
[4] = test system: SF-539 CNS
[5] = test system: ACHN renal
[6] = test system: MDA-MB-468 breast
[7] = test system: A549 NSCLC
[8] = test system: HCT-15 colon
[9] = test system: K-562 leukemia
[10] = test system: RPMI-8226 leukemia
[11] = test system: TK-10 renal
[12] = test system: NCI/ADR-RES ovarian
[13] = test system: SNB-75 CNS
[14] = test system: BT-549 breast
[15] = test system: MDA-MB-231 breast
[16] = test system: OVCAR-8 ovarian
[17] = test system: UACC-62 melanoma
[18] = test system: NCI-H226 lung
[19] = test system: OVCAR-5 ovarian
[20] = test system: SR leukemia
[21] = test system: EKVX NSCLC
[22] = test system: 786-0 renal
[23] = test system: M14 melanoma
[24] = test system: MDA-MB-435 melanoma
[25] = test system: RXF 393 renal
[26] = test system: HOP-62 NSCLC
[27] = test system: OVCAR-3 ovarian
[28] = test system: HT29 colon
[29] = test system: SK-MEL-2 melanoma
[30] = test system: KM12 colon
[31] = test system: A498 renal
[32] = test system: UACC-257 melanoma
[33] = test system: HL-60(TB) leukemia
[34] = test system: NCI-H522 lung
[35] = test system: DU-145 prostate
[36] = test system: SNB-19 CNS
[37] = test system: CAKI-1 renal
[38] = test system: HCC-2998 colon
[39] = test system: HCT-116 colon
[40] = test system: IGROV1 ovarian
[41] = test system: COLO 205 colon
[42] = test system: SF-295 CNS
[43] = test system: HS 578T breast
[44] = test system: T-47D breast
[45] = test system: SF-268 CNS
[46] = test system: CCRF-CEM leukemia
[47] = test system: MALME-3M melanoma
[48] = test system: SN12C renal
[49] = test system: SK-MEL-28 melanoma
[50] = test system: MOLT-4 leukemia
[51] = test system: HOP-92 NSCLC
[52] = test system: SK-MEL-5 melanoma
[53] = test system: NCI-H23 lung
[54] = test system: MCF7 breast
[55] = test system: LOX IMVI melanoma
[56] = test system: NCI-H460 NSCLC
[57] = test system: U251 glioblastoma
[58] = test system: SW-620 colon
[59] = test system: OVCAR-4 ovarian
[60] = test system: UO-31 renal

## Cc1ccncc1N1CCN(c2ccnc(Cl)c2)C1=O
[1]
  GI50: > 100 µM
  TGI: > 100 µM
[2]
  GI50: > 100 µM
  TGI: > 100 µM
[3]
  GI50: > 100 µM
  TGI: > 100 µM
[4]
  GI50: > 100 µM
  TGI: > 100 µM
[5]
  GI50: > 100 µM
  TGI: > 100 µM
[6]
  GI50: > 100 µM
  TGI: > 100 µM
[7]
  GI50: > 100 µM
  TGI: > 100 µM
[8]
  GI50: > 100 µM
  TGI: > 100 µM
[9]
  GI50: > 100 µM
  TGI: > 100 µM
[10]
  GI50: > 100 µM
  TGI: > 100 µM
[11]
  GI50: > 100 µM
  TGI: > 100 µM
[12]
  GI50: > 100 µM
  TGI: > 100 µM
[13]
  GI50: > 100 µM
  TGI: > 100 µM
[14]
  GI50: > 100 µM
  TGI: > 100 µM
[15]
  GI50: > 100 µM
  TGI: > 100 µM
[16]
  GI50: > 100 µM
  TGI: > 100 µM
[17]
  GI50: > 100 µM
  TGI: > 100 µM
[18]
  GI50: > 100 µM
  TGI: > 100 µM
[19]
  GI50: > 100 µM
  TGI: > 100 µM
[20]
  GI50: > 100 µM
  TGI: > 100 µM
[21]
  GI50: > 100 µM
  TGI: > 100 µM
[22]
  GI50: > 100 µM
  TGI: > 100 µM
[23]
  GI50: > 100 µM
  TGI: > 100 µM
[24]
  GI50: > 100 µM
  TGI: > 100 µM
[25]
  GI50: > 100 µM
  TGI: > 100 µM
[26]
  GI50: > 100 µM
  TGI: > 100 µM
[27]
  GI50: > 100 µM
  TGI: > 100 µM
[28]
  GI50: > 100 µM
  TGI: > 100 µM
[29]
  GI50: > 100 µM
  TGI: > 100 µM
[30]
  GI50: > 100 µM
  TGI: > 100 µM
[31]
  GI50: > 100 µM
  TGI: > 100 µM
[32]
  GI50: > 100 µM
  TGI: > 100 µM
[33]
  GI50: > 100 µM
  TGI: > 100 µM
[34]
  GI50: > 100 µM
  TGI: > 100 µM
[35]
  GI50: > 100 µM
  TGI: > 100 µM
[36]
  GI50: > 100 µM
  TGI: > 100 µM
[37]
  GI50: > 100 µM
  TGI: > 100 µM
[38]
  GI50: > 100 µM
  TGI: > 100 µM
[39]
  GI50: > 100 µM
  TGI: > 100 µM
[40]
  GI50: > 100 µM
  TGI: > 100 µM
[41]
  GI50: > 100 µM
  TGI: > 100 µM
[42]
  GI50: > 100 µM
  TGI: > 100 µM
[43]
  GI50: > 100 µM
  TGI: > 100 µM
[44]
  GI50: > 100 µM
  TGI: > 100 µM
[45]
  GI50: > 100 µM
  TGI: > 100 µM
[46]
  GI50: > 100 µM
  TGI: > 100 µM
[47]
  GI50: > 100 µM
  TGI: > 100 µM
[48]
  GI50: > 100 µM
  TGI: > 100 µM
[49]
  GI50: > 100 µM
  TGI: > 100 µM
[50]
  GI50: > 100 µM
  TGI: > 100 µM
[51]
  GI50: > 100 µM
  TGI: > 100 µM
[52]
  GI50: > 100 µM
  TGI: > 100 µM
[53]
  GI50: > 100 µM
  TGI: > 100 µM
[54]
  GI50: > 100 µM
  TGI: > 100 µM
[55]
  GI50: > 100 µM
  TGI: > 100 µM
[56]
  GI50: > 100 µM
  TGI: > 100 µM
[57]
  GI50: > 100 µM
  TGI: > 100 µM
[58]
  GI50: > 100 µM
  TGI: > 100 µM
[59]
  GI50: > 100 µM
  TGI: > 100 µM

## NC(=O)[C@@H](CCC(F)(F)F)N(Cc1ccc(-c2ncon2)cc1F)S(=O)(=O)c1ccc(Cl)cc1
[1]
  GI50: 17.5 µM
  TGI: 34.4 µM
[2]
  GI50: 15 µM
  TGI: 29.5 µM
[3]
  GI50: 12.7 µM
  TGI: 25.8 µM
[4]
  GI50: 17.7 µM
  TGI: 31.7 µM
[5]
  GI50: 16 µM
  TGI: 30 µM
[6]
  GI50: 3.28 µM
  TGI: 22.1 µM
[7]
  GI50: 14.6 µM
  TGI: 28.1 µM
[8]
  GI50: 15.4 µM
  TGI: 29.9 µM
[9]
  GI50: 13.5 µM
  TGI: 26.7 µM
[10]
  GI50: 13.6 µM
  TGI: 26.6 µM
[11]
  GI50: 18.3 µM
  TGI: 36.4 µM
[12]
  GI50: 17.1 µM
  TGI: 32 µM
[13]
  GI50: 14.1 µM
  TGI: 28.1 µM
[14]
  GI50: 17.2 µM
  TGI: 32.2 µM
[15]
  GI50: 14.6 µM
  TGI: 28.5 µM
[16]
  GI50: 17.1 µM
  TGI: 31 µM
[17]
  GI50: 11.4 µM
  TGI: 23.6 µM
[18]
  GI50: 14.4 µM
  TGI: 28.3 µM
[19]
  GI50: 17.7 µM
  TGI: 33.8 µM
[21]
  GI50: 15.8 µM
  TGI: 31.4 µM
[22]
  GI50: 14.4 µM
  TGI: 27.6 µM
[23]
  GI50: 12.5 µM
  TGI: 25.1 µM
[24]
  GI50: 13.5 µM
  TGI: 26.8 µM
[25]
  GI50: 11.7 µM
  TGI: 23.9 µM
[26]
  GI50: 14.7 µM
  TGI: 28.1 µM
[27]
  GI50: 15.6 µM
  TGI: 29.1 µM
[28]
  GI50: 14.2 µM
  TGI: 27.4 µM
[30]
  GI50: 15 µM
  TGI: 28.7 µM
[31]
  GI50: 17.7 µM
  TGI: 31.8 µM
[32]
  GI50: 14.1 µM
  TGI: 27.3 µM
[33]
  GI50: 14 µM
  TGI: 27.1 µM
[34]
  GI50: 17.7 µM
  TGI: 31.6 µM
[35]
  GI50: 19 µM
  TGI: 36.4 µM
[36]
  GI50: 16.9 µM
  TGI: 31.5 µM
[37]
  GI50: 15.9 µM
  TGI: 30.9 µM
[38]
  GI50: 3.09 µM
  TGI: 12.6 µM
[39]
  GI50: 15.2 µM
  TGI: 28.8 µM
[60]
  GI50: 13 µM
  TGI: 25.9 µM
[40]
  GI50: 16.4 µM
  TGI: 30.5 µM
[41]
  GI50: 15.5 µM
  TGI: 30.2 µM
[42]
  GI50: 17 µM
  TGI: 31 µM
[43]
  GI50: 12.6 µM
  TGI: 25.2 µM
[44]
  GI50: 2.15 µM
  TGI: 10.5 µM
[45]
  GI50: 13 µM
  TGI: 25.8 µM
[46]
  GI50: 11.6 µM
  TGI: 23.8 µM
[47]
  GI50: 13.4 µM
  TGI: 26.2 µM
[48]
  GI50: 16.7 µM
  TGI: 30.5 µM
[49]
  GI50: 18.1 µM
  TGI: 32.1 µM
[50]
  GI50: 5.98 µM
  TGI: 19.8 µM
[51]
  GI50: 13.1 µM
  TGI: 26.2 µM
[52]
  GI50: 12.9 µM
  TGI: 25.8 µM
[53]
  GI50: 14.6 µM
  TGI: 28.6 µM
[54]
  GI50: 14.5 µM
  TGI: 28.3 µM
[55]
  GI50: 14.4 µM
  TGI: 27.8 µM
[56]
  GI50: 15.5 µM
  TGI: 29.2 µM
[57]
  GI50: 17.3 µM
  TGI: 31.1 µM
[58]
  GI50: 17.6 µM
  TGI: 32.5 µM
[59]
  GI50: 14.7 µM
  TGI: 28.1 µM
